This note sets out measurements from ChEMBL document CHEMBL1201862, “PubChem BioAssay data set” (2004).

Some test systems named below: 786-0; ACHN; CAKI-1; EKVX; HCT-116; HCT-15; IGROV-1; KM12; M14; Malme-3M; SF-539; TK-10; U-251; UO-31.
Holding throughout (test): DTP human tumour cell line panel, 48 h

The structures appear in SMILES notation.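 A five-concentration, 48-hour dose response in 96-well plates underlies each endpoint, interpolated linearly between surrounding concentrations. At the GI50, growth is halved.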 Activity calls are given as the source filed them. Rule as the data show it: active = GI50 up to about 1.1 µM and inactive = higher.

On to `NC(=S)N/N=C1/C(=O)N(c2ccc(Cl)cc2Cl)C(=O)C(=O)C1c1nc2ccccc2s1` (stereo not drawn), for which the GI50 was > 100 µM (inactive) with 786-0; > 100 µM (inactive) in the assay on ACHN; > 100 µM (inactive) with CAKI-1; > 100 µM (inactive) in the assay with EKVX; > 100 µM (inactive) with HCT-116; over 100 µM in the assay with HCT-15. In addition, the GI50 in the assay on IGROV-1, in the assay with KM12, in the assay with M14, in the assay on Malme-3M, in the assay on SF-539 and in the assay with TK-10 was > 100 µM (inactive) throughout. In addition, the GI50 in the assay on U-251 and with UO-31 was > 100 µM (inactive) throughout.

With `N#CC1(Cc2ccccc2[N+](=O)[O-])c2ccccc2C2C(N1C(=O)c1ccccc1)C2(Cl)Cl` (stereo not drawn), the GI50 in the assay with 786-0 was > 100 µM (inactive); in the assay on ACHN it was 13.2 µM (inactive); in the assay with CAKI-1, > 100 µM (inactive); with EKVX, > 100 µM (inactive); in the assay with HCT-116 it was > 100 µM (inactive); with HCT-15, over 100 µM. For the same molecule, the GI50 in the assay with IGROV-1, in the assay on KM12, with M14, in the assay with Malme-3M, in the assay on SF-539 and with TK-10 was > 100 µM (inactive) each time. The GI50 in the assay on U-251 and in the assay with UO-31 was > 100 µM (inactive) each time.

As to `CN(C(=O)C12C3C4C1C1C2C3C41I)C(C)(C)C` (stereo not drawn), the GI50 in the assay with 786-0 is > 100 µM (inactive); in the assay with ACHN it was 98.9 µM (inactive); in the assay on CAKI-1 it was > 100 µM (inactive); in the assay with EKVX it was 64.9 µM (inactive); in the assay on HCT-116, 70.1 µM (inactive); with HCT-15, 63.1 µM. The GI50 was > 90.8 µM (inactive) in the assay with IGROV-1; > 100 µM (inactive) in the assay with KM12; > 100 µM (inactive) in the assay with M14; > 95.9 µM (inactive) with Malme-3M; > 100 µM (inactive) in the assay on SF-539; > 57.4 µM (inactive) in the assay on TK-10. Also, the GI50 was > 91.2 µM (inactive) with U-251 and > 67.1 µM (inactive) in the assay with UO-31.

Take `CCOC(=N)CC(=O)NC(C)c1ccccc1` (stereo not drawn): the GI50 was > 100 µM (inactive) in the assay with 786-0; > 100 µM (inactive) with ACHN; > 100 µM (inactive) in the assay with CAKI-1; > 100 µM (inactive) with EKVX; > 100 µM (inactive) in the assay with HCT-116; over 100 µM in the assay with HCT-15. For the same molecule, the GI50 with IGROV-1, in the assay with KM12, with M14, in the assay with Malme-3M, in the assay on SF-539 and in the assay with TK-10 was > 100 µM (inactive) each time. Moreover, the GI50 with U-251 and in the assay with UO-31 was > 100 µM (inactive) in each case.

In the case of `Cc1c(N)c(C#N)c2n(C)c3ncccc3n2c1=O`, the GI50 in the assay with 786-0 is > 100 µM (inactive); in the assay with ACHN, > 100 µM (inactive); in the assay with CAKI-1 it was > 100 µM (inactive); in the assay on EKVX, > 100 µM (inactive); in the assay with HCT-116, > 100 µM (inactive); in the assay with HCT-15, over 100 µM. Moreover, the GI50 with KM12, in the assay on M14, with Malme-3M, in the assay on SF-539, in the assay with TK-10 and in the assay on U-251 was > 100 µM (inactive) in each case. In addition, the GI50 with UO-31 is > 100 µM (inactive).

Consider `COc1cc2c(cn1)[nH]c1ccccc12`, for which the GI50 in the assay with 786-0 was > 100 µM (inactive); with ACHN, > 100 µM (inactive); in the assay with CAKI-1, 94.2 µM (inactive); in the assay with EKVX, > 100 µM (inactive); in the assay with HCT-116, > 100 µM (inactive); in the assay on HCT-15, over 100 µM. Also, the GI50 in the assay with IGROV-1, in the assay on KM12, with M14, with Malme-3M, with SF-539 and with TK-10 was > 100 µM (inactive) throughout. In addition, the GI50 in the assay on U-251 and with UO-31 was > 100 µM (inactive) in each case.

By GI50 is commonly meant the concentration that inhibits growth by half.
